Measured values from patent US5559152A, “Pharmaceutical composition having antiacoholic activity” (priority 1994, dated 1996).
Read-outs that look alike come from different tables or passages of the source.

Assays:
[1] = tested on: stomach and liver tissues; details: in 100 mg of tissue; 3.5 mg/kg; M ± m
Protocol: (§1) Stomachs were washed with water through cardiac opening and the washing from the antral opening were collected. Stomach contents (5 ml of washings) were used to determine pH, pepsin and total protein content. Stomach was refilled with water, frozen in cryostate and serial section having the thickness of 6-8 microns were made beginning from low curvature and parallel to stomach longer axis. In the sections of stomach bottom and body having a total weight of 50-90 mg, protein and nucleic acids content was determined.

stomach mucosa [2] = details: mice, 3.5 mg/kg intrastomach, 35-45 min; M ± m
Protocol: as §1

[3] = tested on: rats (acute alcohol intoxication)
succinate dehydrogenase = details: mice; 4 mg/kg intrastomach, 40 min; M ± m
stomach mucosa [4] = details: 3.6 mg/kg, dogs
[5] = tested on: rats subjected to gamma-irradiation; details: rodents; cited from earlier work
stomach mucosa [6] = tested on: stomach mucosa
Protocol: The diagnoses were verified on the basis of all presently used methods for diagnosing gastroenterological diseases. […] Pentagastrin in the dosage of 6 μg/kg of body weight and histamine in the dosage of 0.1 ml of 0.1% solution were used as comparative preparations. […] Having deciphered pH-gramms, pH levels, "alkaline time" (AT), hydrogen ions secretion rate (HISR), kinetic function of acid formation (KFA) were determined.
For this purpose the characteristics of stomach acid-forming function were studied in these volunteers after administering said preparations in different sequences.

patients = details: background; cited from earlier work
[7] = tested on: rats subjected to gamma-irradiation; details: 16 Gy, 100 mg/kg i.p. 30 min before irradiation
Protocol: This preparation was given i.p. to a group of 10 animals 30 min. before the irradiation in the dosage of 100 mg/kg of animal weight.

[8] = tested on: stomach secretion in patients suffering chronic gastritis; experiment: comparative study of pentagastrin and present composition in patients suffering chronic gastritis; format: in vivo, human
Protocol: With intragastric pH-metry initial levels of pH in these patients varied from 3.5 to 6.8, and after Noller test these levels increased to alkaline values (8-9) which levels remained the same during the test period (1-1.5 hours).

[9] = tested on: stomach secretion in patients suffering chronic gastritis with pentagastrinrefractive achlorhydria; experiment: stomach secretion in patients with pentagastrinrefractive achlorhydria; format: in vivo, human; details: stimulated secretion; M ± m
Protocol: Additionally intrastomach pH-metry was carried out (on an empty stomach and after taking the present composition or comparative preparations) using acidograph with aspiratory pH probe. Before introducing the present composition and comparative preparations and after that pH levels were registered and "alkaline time" was determined using Noller test. Having deciphered pH-gramms, pH levels, "alkaline time" (AT), hydrogen ions secretion rate (HISR), kinetic function of acid formation (KFA) were determined.
The effect of the present composition on stomach secretion in patients of this group has been studied.

[10] = tested on: stomach secretion in patients suffering chronic gastritis accompanied by stomach and duodenum ulcers; experiment: stomach secretion in patients with chronic gastritis accompanied by stomach and duodenum ulcers, pentagastrin after present composition; format: in vivo, human
Protocol: The diagnoses were verified on the basis of all presently used methods for diagnosing gastroenterological diseases. […] Additionally intrastomach pH-metry was carried out (on an empty stomach and after taking the present composition or comparative preparations) using acidograph with aspiratory pH probe. Before introducing the present composition and comparative preparations and after that pH levels were registered and "alkaline time" was determined using Noller test. Having deciphered pH-gramms, pH levels, "alkaline time" (AT), hydrogen ions secretion rate (HISR), kinetic function of acid formation (KFA) were determined.

[11] = histamine stimulated secretion, an hour after present composition
[12] = secretion in 1 h after histamine injection
[13] = secretion in interval between stimulators (after histamine)
[14] = stimulated secretion, pentagastrin a day after present composition, M ± m

Compound: O=C(O)CCC(=O)O [succinic acid]
- Liver DNA content [1]: 15.6 ± 2.7 µg
- Liver RNA content [1]: 74.5 ± 4.4 µg
- Liver protein content [1]: 14.4 ± 1.2 mg
- Stomach DNA content [1]: 13.1 ± 1.1 µg
- Stomach RNA content [1]: 70.0 ± 4.7 µg
- Stomach protein content [1]: 12.1 ± 0.9 mg
- Pepsin amount in stomach contents (stomach mucosa [2]): 18.7 ± 2.1 µg
- Total protein amount in stomach contents (stomach mucosa [2]): 3.9 ± 0.9 mg
- pH of stomach contents (stomach mucosa [2]): 5.7 ± 0.2
- Duration of on-side position, single ethanol injection ([3]; 1.85 mg/kg intrastomach 40 min before 25% ethanol 3.5 g/kg i.p., M ± m): 1.6 ± 1.1 min
- Duration of on-side position, repeated ethanol injection ([3]; 1.85 mg/kg intrastomach, second 25% ethanol 3 g/kg, 60 min after leaving on-side position, M ± m): 24.9 ± 3.8 min
- alcoprotective detoxifying activity compared ([3]; after a single ethanol injection, versus claimed composition): higher alcoprotective detoxifying activity than the claimed composition
- succinate dehydrogenase activity in liver (succinate dehydrogenase): 21.8 ± 0.6 nanomoles of formazan of p-nit
- succinate dehydrogenase activity in stomach (succinate dehydrogenase): 26.3 ± 3.0 nanomoles of formazan of p-nit
- succinate dehydrogenase activity of lymphocytes (succinate dehydrogenase): 643. ± 5.1 granules of formazan of p-nitr
- time after introduction at which effect on stomach secretion abated (stomach mucosa [4]): 20 min
- stimulation of stomach glands and fermentative activity (stomach mucosa [4]; versus present composition): less expressed results
- effective dosage (radioprotective) [5]: 2.7 g/kg of animal weight

Compound: NCCc1c[nH]cn1 [histamine]
- effects on stomach acid-forming function (duration and intensity), present composition versus histamine (stomach mucosa [6]; Tables 23 and 24): identical effects on stomach acid-forming function
- Free hydrochloric acid (stomach mucosa [6]; histamine secretion, M ± m): 6.5 ± 0.27 meq./liter
- Total hydrochloric acid (stomach mucosa [6]; histamine secretion, M ± m): 8.00 ± 0.29 meq./liter
- Free hydrochloric acid (stomach mucosa [6]; [11]): 3.90 ± 0.11 meq/liter
- Total hydrochloric acid (stomach mucosa [6]; [11]): 4.70 ± 0.12 meq/liter
- Free hydrochloric acid (stomach mucosa [6]; [12]): 6.92 ± 0.73 meq/liter
- Total hydrochloric acid (stomach mucosa [6]; [12]): 4.6 ± 0.5 meq/liter
- Free hydrochloric acid (stomach mucosa [6]; [13]): 15.3 ± 1.4 meq./liter
- Total hydrochloric acid (stomach mucosa [6]; [13]): 15.8 ± 1.6 meq./liter
- complications / side effects (patients): nettle-rash,larynx edema, anaphylactic shock

Compound: N[C@@H](CCC(=O)N[C@@H](CS)C(=O)NCC(=O)O)C(=O)O [glutathione]
- mortality [7]: 100%
- life-time of rats ([7]; control 6.9 days): 10.2 days

Compound: CSCC[C@H](NC(=O)[C@H](Cc1c[nH]c2ccccc12)NC(=O)CCNC(=O)OC(C)(C)C)C(=O)N[C@@H](CC(=O)O)C(=O)N[C@@H](Cc1ccccc1)C(N)=O [pentagastrin]
- acidity, pepsin content, hydrochloric acid debit and pepsin debit ([8]; 12 refractory patients): remained at zero levels
- intragastric pH after stimulation ([8]; 12 refractory patients, from 6.51±1.06, p<0.25): 4.69±0.92
- AT reduction in Noller test ([8]; 12 refractory patients, p<0.5): did not cause AT reduction
- patients refractory ([8]; chronic gastritis, pentagastrin 6 μg/kg): 12 of 50
- effect on stomach secretion, comparison of the both preparations ([8]; patients suffering chronic gastritis, p<0.5): nearly the same effect on stomach secretion
- Acid secretion [9]: 15.25 ± 0.86%
- Acidity [9]: 0 ± 0 mmol per liter
- Hydrochloric acid debit [9]: 0 ± 0 mmol per hour
- Pepsin content [9]: 0 ± 0 mg per ml
- Pepsin debit [9]: 0 ± 0 mg per hour
- Stomach contents volume [9]: 0.067 ± 0.15 liter per hour
- effect on stomach secretion, comparison of the both preparations ([10]; chronic gastritis accompanying stomach and duodenum ulcers, p<0.5): nearly the same effect on stomach secretion
- effects when present composition administered in a week after pentagastrin ([10]; p<0.5): nearly identical
- Pepsin debit ([10]; stimulated secretion, pentagastrin a day after present composition, M ±): 5.0 ± 1.05 mg/h
- Hydrochloric acid debit [10, 14]: 17 ± 1.44 mmol/h
- Secretion volume [10, 14]: 178 ± 12.7 mL
- pH [10, 14]: 1.4 ± 0.14
